Test results published in PubChem BioAssay AID330 (DTP/NCI, 2004).
Values joined by “and” are separate entries in the source; they are usually repeats but may differ in a detail not shown here. Equal values may be shown once. Toxic doses and inconclusive results are not listed.

Test system: P388 leukemia ip, CD2F1 mice, survival T/C
Test: NCI In Vivo Anticancer Drug Screen. Data for tumor model P388 Leukemia (intraperitoneal) in CD2F1 (CDF1) mice
Conditions: endpoint: median survival time, higher = longer survival
How it was run: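 Mice carrying the transplanted tumor received test compound or vehicle. Survival was recorded in each group, and the value is the treated-group measurement divided by that of the vehicle-treated control group.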

[1] = dose: 50.0 mg/kg/injection, schedule: Q01DX005 (ip), vehicle: Klucel (hydroxypropylcellulose) (HPC)
[2] = dose: 100.0 mg/kg/injection, schedule: Q01DX005 (ip), vehicle: Klucel (hydroxypropylcellulose) (HPC)
[3] = dose: 200.0 mg/kg/injection, schedule: Q01DX005 (ip), vehicle: Klucel (hydroxypropylcellulose) (HPC)
[4] = dose: 50.0 mg/kg/injection, schedule: Q01DX005 (ip), vehicle: saline with Tween-80
[5] = dose: 100.0 mg/kg/injection, schedule: Q01DX005 (ip), vehicle: saline with Tween-80
[6] = dose: 200.0 mg/kg/injection, schedule: Q01DX005 (ip), vehicle: saline with Tween-80
[7] = dose: 100.0 mg/kg/injection, schedule: Q01DX001 (ip), vehicle: Klucel (hydroxypropylcellulose) (HPC)
[8] = dose: 200.0 mg/kg/injection, schedule: Q01DX001 (ip), vehicle: Klucel (hydroxypropylcellulose) (HPC)
[9] = dose: 400.0 mg/kg/injection, schedule: Q01DX001 (ip), vehicle: Klucel (hydroxypropylcellulose) (HPC)
[10] = dose: 50.0 mg/kg/injection, schedule: Q01DX009 (ip), vehicle: saline

`O=[N+]([O-])c1ccc(C(Cl)C2(Br)C=c3ccccc3=C2)cc1` (stereo not given) was tested, and the T/C (dose: 100.0 mg/kg/injection, schedule: Q04DX003 (ip), vehicle: Klucel (hydroxypropylcellulose) (HPC)) was 100 % of control, the T/C (dose: 200.0 mg/kg/injection, schedule: Q04DX003 (ip), vehicle: Klucel (hydroxypropylcellulose) (HPC)) was 100 % of control and the T/C (dose: 400.0 mg/kg/injection, schedule: Q04DX003 (ip), vehicle: Klucel (hydroxypropylcellulose) (HPC)) was 95 % of control.

In the case of `C/C(N)=C(\C#N)C(=O)c1ccccc1`, the T/C [1] was 100 % of control, the T/C [2] was 103 % of control and the T/C [3] was 111 % of control.

For `COc1ccc2c3c(cnc2c1)C(=O)CCC3`, the T/C [4] was 104 % of control, the T/C [5] was 101 % of control and the T/C [6] was 96 % of control.

For `c1nc(N2CCOCC2)c2[nH]cnc2n1`, the T/C [1] was 99 % of control and 91 % of control, the T/C [2] was 88 % of control and the T/C [3] was 91 % of control.

With `NC(CSSCC(NC(=O)c1ccccc1)C(=O)O)C(=O)O` (stereo not given) the T/C [1] was 103 % of control and 99 % of control, the T/C [2] was 106 % of control and 96 % of control and the T/C [3] was 100 % of control and 101 % of control and 111 % of control.

With `CC1(C)C(=NOCc2ccccc2)C(C)(C)C1=NOCc1ccccc1` the T/C [4] was 91 % of control, the T/C [5] was 87 % of control and the T/C [6] was 86 % of control.

For `N#Cc1ccc(OC(=O)Nc2c(Br)cc(Br)cc2Br)cc1`, the T/C (dose: 60.0 mg/kg/injection, schedule: Q01DX005 (ip), vehicle: saline with Tween-80) was 93 % of control, the T/C (dose: 120.0 mg/kg/injection, schedule: Q01DX005 (ip), vehicle: saline with Tween-80) was 99 % of control and the T/C (dose: 240.0 mg/kg/injection, schedule: Q01DX005 (ip), vehicle: saline with Tween-80) was 99 % of control.

In the case of `O=C1NCCN=C1Cc1ccccc1`, the T/C (dose: 100.0 mg/kg/injection, schedule: Q04DX002 (ip), vehicle: saline with Tween-80) was 93 % of control, the T/C (dose: 200.0 mg/kg/injection, schedule: Q04DX002 (ip), vehicle: saline with Tween-80) was 100 % of control and the T/C (dose: 400.0 mg/kg/injection, schedule: Q04DX002 (ip), vehicle: saline with Tween-80) was 95 % of control.

In the case of `CC([NH-])C[NH-].O=C(O)C(=O)O.[Pt+2]`, the T/C (dose: 6.25 mg/kg/injection, schedule: Q04DX002 (ip), vehicle: saline with Tween-80) was 151 % of control and the T/C (dose: 6.25 mg/kg/injection, schedule: Q04DX002 (ip), vehicle: saline) was 150 % of control.

In the case of `CCCn1c(Cl)c(C=O)c2ccccc21`, the T/C [7] was 104 % of control, the T/C [8] was 98 % of control and the T/C [9] was 97 % of control.

For `CCc1ccc(C2=C(Cl)C(=O)C(c3ccccc3)=C(Cl)C2=O)cc1`, the T/C (dose: 12.5 mg/kg/injection, schedule: Q01DX005 (ip), vehicle: Klucel (hydroxypropylcellulose) (HPC)) was 98 % of control, the T/C (dose: 25.0 mg/kg/injection, schedule: Q01DX005 (ip), vehicle: Klucel (hydroxypropylcellulose) (HPC)) was 93 % of control and the T/C [1] was 93 % of control and 98 % of control.

For `CSc1nc2ccccc2[nH]1`, the T/C (dose: 6.25 mg/kg/injection, schedule: Q01DX009 (ip), vehicle: saline with Tween-80) was 101 % of control, the T/C (dose: 12.5 mg/kg/injection, schedule: Q01DX009 (ip), vehicle: saline with Tween-80) was 106 % of control and the T/C (dose: 25.0 mg/kg/injection, schedule: Q01DX009 (ip), vehicle: saline with Tween-80) was 106 % of control. For the same compound, the T/C (dose: 50.0 mg/kg/injection, schedule: Q01DX009 (ip), vehicle: saline with Tween-80) was 110 % of control.

For `COc1ccccc1-n1c(=O)c(N=Nc2ccccc2Cl)c(O)n(-c2ccccc2Cl)c1=S`, the T/C [7] was 101 % of control, the T/C [8] was 100 % of control and the T/C [9] was 101 % of control.

With `CCCn1c(C)nc2c(cnn2C)c1=O` the T/C [1] was 101 % of control, the T/C [2] was 104 % of control and the T/C [3] was 111 % of control.

In the case of `COc1cc2cc(-c3ccc(OC(C)C)c(OC)c3)[n+](C)cc2cc1OC`, the T/C (dose: 100.0 mg/kg/injection, schedule: Q01DX001 (ip), vehicle: saline with Tween-80) was 100 % of control and the T/C (dose: 200.0 mg/kg/injection, schedule: Q01DX001 (ip), vehicle: saline with Tween-80) was 94 % of control.

For `COc1ccc(Oc2cc3c(cc2OC)CCN(C)C3)cc1`, the T/C (dose: 12.5 mg/kg/injection, schedule: Q01DX009 (ip), vehicle: saline) was 108 % of control, the T/C (dose: 25.0 mg/kg/injection, schedule: Q01DX009 (ip), vehicle: saline) was 104 % of control and the T/C [10] was 99 % of control and 107 % of control.

`Clc1ccc(/C=C/c2ccnnc2)cc1` was tested, and the T/C [10] was 106 % of control, the T/C (dose: 100.0 mg/kg/injection, schedule: Q01DX009 (ip), vehicle: saline) was 106 % of control and the T/C (dose: 200.0 mg/kg/injection, schedule: Q01DX009 (ip), vehicle: saline) was 91 % of control.
